Data on 15 compounds can be found in US12435046B2, “Alkynyl quinazoline compounds” (Black Diamond Therapeutics, Inc., priority 2019, dated 2025).

What all share (assay type): cell-based
Details in all cases: Table A; BaF3 cells, 3 days

One assay concerns the target T1, EGFR SVD (Homo sapiens, UniProt P00533, INS770SVD).
T1 construct: expressed in transfected cells; host or cells: BaF3 (murine pro-B) cells, retroviral transduction with pMXs-IRES-Blasticidin
Nature of the assay: BaF3 cell proliferation assay (CellTiterGlo), EGFR SVD. How it is done:
(§1) Retroviral Production: EGFR mutants were subcloned into pMXs-IRES-Blasticidin (RTV-016, Cell Biolabs, San Diego, CA). Retroviral expression vector retrovirus was produced by transient transfection of HEK 293T cells with the retroviral EGFR mutant expression vector pMXs-IRES-Blasticidin (RTV-016, Cell Biolabs), pCMV-Gag-Pol vector and pCMV-VSV-G-Envelope vector. Briefly, HEK 293T/17 cells were plated in 100 mm collagen coated plate (354450, Corning Life Sciences, Tewksbury, MA) (4×10^5 per plate) and incubated overnight. The next day, retroviral plasmids (3 ng of EGFR mutant, 1.0 ng of pCMV-Gag-Pol and 0.5 ng pCMV-VSV-G) were mixed in 500 n1 of Optimem (31985, Life Technologies). The mixture was incubated at room temperature for 5 min and then added to Optimem containing transfection reagent Lipofectamine (11668, Invitrogen) and incubated for 20 minutes. Mixture was then added dropwise to HEK 293T cells. The next day the medium was replaced with fresh culture medium and retrovirus was harvested @ 24 and 48 hrs.
(§2) Generation of EGFR mutant stable cell lines: BaF3 cells (1.5E5 cells) were infected with 1 ml of viral supernatant supplemented with 8 ng/ml polybrene by centrifuging for 30 min at 1000 rpm. Cells were placed in a 37° C. incubator overnight. Cells were then spun for 5 minutes to pellet the cells. Supernatant was removed and cells re-infected a fresh 1 ml of viral supernatant supplemented with 8 ng/ml polybrene by centrifuging for 30 min at 1000 rpm. Cells were placed in 37° C. incubator overnight. Cells were then maintained in RPMI containing 10% Heat Inactivated FBS, 2% L-glutamine containing 10 ng/ml IL-3. After 48 hours cells were selected for retroviral infection in 10 […] for one week. Blasticidin resistant populations were washed twice in phosphate buffered saline before plating in media lacking IL-3 to select for IL-3 independent growth.
(§3) Assay for cell proliferation: BaF3 cell lines were resuspended at 1.3E5 c/ml in RPMI containing 10% Heat Inactivated FBS, 2% L-glutamine and 1% Pen/Strep and dispensed in triplicate (17.5E4 c/well) into 96 well plates. To determine the effect of drug on cell proliferation, cells incubated for 3 days in the presence of vehicle control or test drug at varying concentrations. Inhibition of cell growth was determined by luminescent quantification of intracellular ATP content using CellTiterGlo (Promega), according to the protocol provided by the manufacturer. Comparison of cell number on day 0 versus 72 hours post drug treatment was used to plot dose-response curves. The number of viable cells was determined and normalized to vehicle-treated controls. Inhibition of proliferation, relative to vehicle-treated controls was expressed as a fraction of 1 and graphed using PRISM® software (Graphpad Software, San Diego, CA). EC50 values were determined with the same application.

The target in another assay is T2, EGFR NPH (Homo sapiens, UniProt P00533, INS773NPH).
T2 construct: expressed in transfected cells; host or cells: BaF3 (murine pro-B) cells, retroviral transduction with pMXs-IRES-Blasticidin
Briefly: BaF3 cell proliferation assay (CellTiterGlo), EGFR NPH. The procedure:
as §1, §2, §3

A further assay has as its target T3, EGFR wt (Homo sapiens, UniProt P00533).
T3 construct: expressed in transfected cells; host or cells: BaF3 (murine pro-B) cells, retroviral transduction with pMXs-IRES-Blasticidin
Nature of the assay: BaF3 cell proliferation assay (CellTiterGlo), EGFR wt. The essentials: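 BaF3 cells engineered by retroviral transduction to express EGFR and selected for blasticidin resistance and IL-3 independent growth were suspended at 1.3E5 c/ml in RPMI with 10% heat inactivated FBS, 2% L-glutamine and 1% Pen/Strep. They were plated in triplicate in 96 well plates and exposed to vehicle or varying drug concentrations for 3 days. Viability was quantified by CellTiterGlo ATP luminescence, normalized to vehicle, and curves fitted in PRISM.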

A further assay has as its target T4, HER2 YVMA (Homo sapiens, UniProt P04626, INS775YVMA).
T4 construct: expressed in transfected cells; host or cells: BaF3 (murine pro-B) cells
Briefly: BaF3 cell proliferation assay (CellTiterGlo), HER2 YVMA.

The next assay has as its target T5, HER2 S310F (Homo sapiens, UniProt P04626, S310F).
T5 construct: expressed in transfected cells; host or cells: BaF3 (murine pro-B) cells
Briefly: BaF3 cell proliferation assay (CellTiterGlo), HER2 S310F.

Another assay has as its target T6, EGFR V3 (Homo sapiens, UniProt P00533, DELINS30-297G).
T6 construct: expressed in transfected cells; host or cells: BaF3 (murine pro-B) cells, retroviral transduction with pMXs-IRES-Blasticidin
Briefly: BaF3 cell proliferation assay (CellTiterGlo), EGFR V3. Put shortly:
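BaF3 cells made IL-3-independent by retroviral expression of each EGFR or HER2 mutant were treated in triplicate with compound for 72 h. Viability was read by CellTiterGlo ATP luminescence and normalised to vehicle, and EC50 was fitted from dose-response curves.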

Some results are limits rather than exact numbers.

T6 sequence (P00533 with tags, fused parts or gaps DELINS30-297G): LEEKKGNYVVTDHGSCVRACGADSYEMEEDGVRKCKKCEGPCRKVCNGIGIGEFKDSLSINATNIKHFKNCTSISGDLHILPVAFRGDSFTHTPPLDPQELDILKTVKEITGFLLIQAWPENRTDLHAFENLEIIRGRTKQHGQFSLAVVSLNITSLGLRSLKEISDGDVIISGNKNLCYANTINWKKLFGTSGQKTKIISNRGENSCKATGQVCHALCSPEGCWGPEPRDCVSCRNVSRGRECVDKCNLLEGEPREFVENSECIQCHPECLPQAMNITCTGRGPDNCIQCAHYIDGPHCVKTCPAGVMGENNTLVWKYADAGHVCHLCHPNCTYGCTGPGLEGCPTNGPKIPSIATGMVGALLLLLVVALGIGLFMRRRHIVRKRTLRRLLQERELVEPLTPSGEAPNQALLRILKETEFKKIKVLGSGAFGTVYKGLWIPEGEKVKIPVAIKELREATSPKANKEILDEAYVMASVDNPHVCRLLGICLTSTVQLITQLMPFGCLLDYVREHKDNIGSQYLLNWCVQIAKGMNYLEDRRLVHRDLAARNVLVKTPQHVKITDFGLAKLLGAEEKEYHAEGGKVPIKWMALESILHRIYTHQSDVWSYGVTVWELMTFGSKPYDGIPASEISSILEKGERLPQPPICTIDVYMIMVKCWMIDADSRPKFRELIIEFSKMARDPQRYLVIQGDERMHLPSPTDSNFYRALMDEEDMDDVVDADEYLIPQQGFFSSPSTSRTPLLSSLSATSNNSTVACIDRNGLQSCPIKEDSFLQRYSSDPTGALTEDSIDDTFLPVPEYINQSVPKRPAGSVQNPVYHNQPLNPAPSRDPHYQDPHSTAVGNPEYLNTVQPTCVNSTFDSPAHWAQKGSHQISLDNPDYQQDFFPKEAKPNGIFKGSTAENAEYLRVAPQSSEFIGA
T4 sequence (P04626 with tags, fused parts or gaps INS775YVMA): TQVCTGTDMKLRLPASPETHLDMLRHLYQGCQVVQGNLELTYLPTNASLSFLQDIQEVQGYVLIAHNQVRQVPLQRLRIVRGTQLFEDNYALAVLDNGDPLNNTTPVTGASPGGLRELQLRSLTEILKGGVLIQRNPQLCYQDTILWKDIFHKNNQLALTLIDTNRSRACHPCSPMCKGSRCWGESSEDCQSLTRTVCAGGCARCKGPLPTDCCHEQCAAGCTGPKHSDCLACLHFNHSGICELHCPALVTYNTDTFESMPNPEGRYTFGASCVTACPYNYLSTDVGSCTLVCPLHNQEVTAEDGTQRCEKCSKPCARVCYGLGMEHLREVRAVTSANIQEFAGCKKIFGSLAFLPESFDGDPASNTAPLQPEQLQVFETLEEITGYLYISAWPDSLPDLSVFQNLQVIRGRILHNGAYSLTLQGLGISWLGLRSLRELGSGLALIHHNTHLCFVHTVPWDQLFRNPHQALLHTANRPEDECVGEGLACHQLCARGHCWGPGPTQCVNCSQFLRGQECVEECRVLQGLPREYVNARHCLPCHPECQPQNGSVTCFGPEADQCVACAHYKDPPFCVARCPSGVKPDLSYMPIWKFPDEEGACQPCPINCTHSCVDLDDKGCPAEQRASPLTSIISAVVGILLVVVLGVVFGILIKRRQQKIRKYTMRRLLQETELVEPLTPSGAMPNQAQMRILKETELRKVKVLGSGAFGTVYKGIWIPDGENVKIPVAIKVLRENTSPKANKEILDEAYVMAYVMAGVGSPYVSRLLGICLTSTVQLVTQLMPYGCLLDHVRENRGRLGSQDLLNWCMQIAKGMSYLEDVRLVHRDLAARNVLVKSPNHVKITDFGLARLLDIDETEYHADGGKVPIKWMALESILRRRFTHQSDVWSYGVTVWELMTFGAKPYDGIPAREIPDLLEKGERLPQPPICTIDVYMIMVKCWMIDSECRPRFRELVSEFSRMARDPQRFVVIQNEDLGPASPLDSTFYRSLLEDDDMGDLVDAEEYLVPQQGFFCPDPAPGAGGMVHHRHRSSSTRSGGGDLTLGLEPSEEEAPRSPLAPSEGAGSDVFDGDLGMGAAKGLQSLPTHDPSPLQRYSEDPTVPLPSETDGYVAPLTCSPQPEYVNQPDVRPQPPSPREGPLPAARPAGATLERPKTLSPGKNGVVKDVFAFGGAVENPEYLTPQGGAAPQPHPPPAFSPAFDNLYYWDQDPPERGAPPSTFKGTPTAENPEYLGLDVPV
T3 sequence (P00533 25-1210): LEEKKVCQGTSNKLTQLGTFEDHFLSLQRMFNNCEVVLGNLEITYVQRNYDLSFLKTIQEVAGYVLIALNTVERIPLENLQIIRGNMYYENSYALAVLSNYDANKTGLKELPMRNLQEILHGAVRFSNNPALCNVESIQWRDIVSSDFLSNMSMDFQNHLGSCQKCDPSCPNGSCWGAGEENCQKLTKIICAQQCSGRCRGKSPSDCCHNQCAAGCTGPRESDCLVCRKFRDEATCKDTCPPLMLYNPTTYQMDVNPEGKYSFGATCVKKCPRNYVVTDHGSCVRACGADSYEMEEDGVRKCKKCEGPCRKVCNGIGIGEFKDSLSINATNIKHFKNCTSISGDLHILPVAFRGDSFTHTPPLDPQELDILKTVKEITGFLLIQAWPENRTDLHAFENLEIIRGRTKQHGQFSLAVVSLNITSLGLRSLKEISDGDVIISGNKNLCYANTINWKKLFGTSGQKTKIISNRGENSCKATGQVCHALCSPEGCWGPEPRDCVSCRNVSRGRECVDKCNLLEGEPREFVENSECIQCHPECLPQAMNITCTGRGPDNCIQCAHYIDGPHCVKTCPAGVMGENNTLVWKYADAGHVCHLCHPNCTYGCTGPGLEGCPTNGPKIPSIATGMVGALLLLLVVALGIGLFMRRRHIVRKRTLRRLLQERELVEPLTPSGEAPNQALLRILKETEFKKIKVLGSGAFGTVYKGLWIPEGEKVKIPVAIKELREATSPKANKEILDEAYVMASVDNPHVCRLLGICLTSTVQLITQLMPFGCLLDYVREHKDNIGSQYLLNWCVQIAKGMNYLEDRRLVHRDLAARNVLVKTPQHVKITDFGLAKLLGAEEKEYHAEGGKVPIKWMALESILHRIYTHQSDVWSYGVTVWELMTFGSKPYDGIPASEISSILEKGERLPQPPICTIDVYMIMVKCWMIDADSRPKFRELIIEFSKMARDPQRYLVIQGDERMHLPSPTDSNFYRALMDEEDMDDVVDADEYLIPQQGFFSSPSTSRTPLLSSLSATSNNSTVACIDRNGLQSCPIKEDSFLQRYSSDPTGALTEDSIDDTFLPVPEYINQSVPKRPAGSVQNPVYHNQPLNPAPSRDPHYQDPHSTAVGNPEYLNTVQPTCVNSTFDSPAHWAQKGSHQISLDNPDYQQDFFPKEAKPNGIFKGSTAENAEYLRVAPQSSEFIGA
T5 sequence (P04626 23-1255 S310F): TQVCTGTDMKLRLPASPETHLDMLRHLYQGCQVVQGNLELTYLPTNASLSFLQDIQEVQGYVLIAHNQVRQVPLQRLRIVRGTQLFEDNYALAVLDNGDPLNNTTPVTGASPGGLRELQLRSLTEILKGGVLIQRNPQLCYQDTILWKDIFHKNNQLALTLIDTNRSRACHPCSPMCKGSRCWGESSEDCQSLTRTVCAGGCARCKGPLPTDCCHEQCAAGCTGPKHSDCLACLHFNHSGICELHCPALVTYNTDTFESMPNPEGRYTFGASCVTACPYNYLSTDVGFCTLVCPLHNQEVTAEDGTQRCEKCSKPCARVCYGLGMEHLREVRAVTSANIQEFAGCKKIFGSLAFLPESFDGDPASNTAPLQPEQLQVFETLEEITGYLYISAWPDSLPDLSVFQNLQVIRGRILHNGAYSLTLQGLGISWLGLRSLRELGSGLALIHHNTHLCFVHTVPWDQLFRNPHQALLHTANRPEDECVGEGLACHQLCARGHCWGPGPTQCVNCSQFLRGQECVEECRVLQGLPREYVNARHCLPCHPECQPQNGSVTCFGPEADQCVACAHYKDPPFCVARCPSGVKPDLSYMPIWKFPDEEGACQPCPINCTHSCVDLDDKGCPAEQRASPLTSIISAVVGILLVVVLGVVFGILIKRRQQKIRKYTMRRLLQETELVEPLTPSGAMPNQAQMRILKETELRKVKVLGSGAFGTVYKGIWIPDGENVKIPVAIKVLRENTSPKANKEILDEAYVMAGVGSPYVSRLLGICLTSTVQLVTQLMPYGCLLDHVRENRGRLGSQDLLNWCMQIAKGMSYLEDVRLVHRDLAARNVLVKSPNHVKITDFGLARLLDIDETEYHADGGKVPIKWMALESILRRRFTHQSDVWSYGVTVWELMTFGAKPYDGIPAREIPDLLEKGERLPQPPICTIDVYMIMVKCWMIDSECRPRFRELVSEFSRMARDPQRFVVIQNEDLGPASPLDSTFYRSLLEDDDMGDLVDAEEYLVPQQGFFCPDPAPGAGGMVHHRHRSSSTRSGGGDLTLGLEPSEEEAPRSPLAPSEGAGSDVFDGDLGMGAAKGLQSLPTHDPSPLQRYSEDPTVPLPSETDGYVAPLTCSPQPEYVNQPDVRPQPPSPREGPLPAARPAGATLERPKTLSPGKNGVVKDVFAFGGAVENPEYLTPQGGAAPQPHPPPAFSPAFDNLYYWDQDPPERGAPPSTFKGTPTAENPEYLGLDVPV

Turning to `C=CC(=O)Nc1cc2c(Nc3cccc(Cl)c3F)ncnc2cc1C#CC1(C)CCN(C)C1` (stereo not drawn) [Compound 1, N-(4-((3-chloro-2-fluorophenyl)amino)-7-((1,3-dimethylpyrrolidin-3-yl)ethynyl)quinazolin-6-yl)acrylamide], the IC50 against EGFR SVD is 100 to 500 nM; on EGFR NPH, 50 to 100 nM; at EGFR wt it was 50 to 100 nM; against HER2 YVMA, 100 to 500 nM; on HER2 S310F, 50 to 100 nM; at EGFR V3 it was at most 50 nM.

With `C=CC(=O)Nc1cc2c(Nc3ccc(Oc4ccccc4)cc3)ncnc2cc1C#C[C@]12C[C@H]1CN(C)C2` [Compound 41, N-(7-(((1S,5R)-3-methyl-3-azabicyclo[3.1.0]hexan-1-yl)ethynyl)-4-((4-phenoxyphenyl)amino)quinazolin-6-yl)acrylamide], the IC50 is 100 to 500 nM on EGFR SVD; 100 to 500 nM at EGFR NPH; 100 to 500 nM against EGFR wt; at most 50 nM at HER2 YVMA; at most 50 nM against EGFR V3.

For the compound `C=CC(=O)Nc1cc2c(Nc3cccc(Cl)c3F)ncnc2cc1C#CC1(C)CCN(CC(F)(F)F)C1` (stereo not drawn) [Compound 68, N-(4-((3-chloro-2-fluorophenyl)amino)-7-((3-methyl-1-(2,2,2-trifluoroethyl)-pyrrolidin-3-yl)ethynyl)quinazolin-6-yl)acrylamide], the IC50 against EGFR wt was over 500 nM; at HER2 YVMA it was over 500 nM; against HER2 S310F it was over 500 nM; against EGFR V3, 100 to 500 nM.

Take `C=CC(=O)Nc1cc2c(Nc3cccc(Cl)c3F)ncnc2cc1C#CC1(C)CCN(C2COC2)C1` (stereo not drawn) [Compound 69, N-(4-((3-chloro-2-fluorophenyl)amino)-7-((3-methyl-1-(oxetan-3-yl)pyrrolidin-3-yl)ethynyl)quinazolin-6-yl)acrylamide]: the IC50 against EGFR wt was 100 to 500 nM; at HER2 YVMA it was over 500 nM; against HER2 S310F it was 100 to 500 nM; on EGFR V3 it was at most 50 nM.

Take `CC#CC(=O)Nc1cc2c(Nc3ccc(OCc4ccccn4)c(Cl)c3)ncnc2cc1C#CC1(C)CCN(C)C1` (stereo not drawn) [Compound 70, N-(4-((3-chloro-4-(pyridin-2-ylmethoxy)phenyl)amino)-7-((1,3-dimethylpyrrolidin-3-yl)ethynyl)quinazolin-6-yl)but-2-ynamide]: the IC50 is 50 to 100 nM against EGFR wt, at most 50 nM against HER2 YVMA, at most 50 nM at HER2 S310F and at most 50 nM on EGFR V3.

In the case of `C=CC(=O)Nc1cc2c(Nc3ccc(OCc4ccccn4)c(Cl)c3)ncnc2cc1C#CC12CCC(CC1)N2C` [Compound 71, N-(4-((3-chloro-4-(pyridin-2-ylmethoxy)phenyl)amino)-7-((7-methyl-7-azabicyclo[2.2.1]heptan-1-yl)ethynyl)quinazolin-6-yl)acrylamide], the IC50 is over 500 nM on EGFR wt, 100 to 500 nM at HER2 YVMA, at most 50 nM against HER2 S310F and at most 50 nM against EGFR V3.

Regarding `C=CC(=O)Nc1cc2c(Nc3ccc(OCc4ccccn4)c(Cl)c3)ncnc2cc1C#CC1(C)CCN(C)CC1` [Compound 72, N-(4-((3-chloro-4-(pyridin-2-ylmethoxy)phenyl)amino)-7-((1,4-dimethylpiperidin-4-yl)ethynyl)quinazolin-6-yl)acrylamide], the half-maximal inhibitory concentration (IC50) is over 500 nM at EGFR wt, 50 to 100 nM on HER2 YVMA, at most 50 nM on HER2 S310F and at most 50 nM against EGFR V3.

For `C=CC(=O)Nc1cc2c(Nc3ccc(O)c(Cl)c3)ncnc2cc1C#C[C@@H]1[C@H]2CN(C)C[C@@H]12` [Compound 73, N-(4-((3-chloro-4-hydroxyphenyl)amino)-7-(((1R,5S,6s)-3-methyl-3-azabicyclo[3.1.0]hexan-6-yl)ethynyl)quinazolin-6-yl)acrylamide], the IC50 was 50 to 100 nM against EGFR wt, 100 to 500 nM on HER2 YVMA, at most 50 nM against HER2 S310F and at most 50 nM against EGFR V3.

On to `CC#CC(=O)Nc1cc2c(Nc3cccc(Cl)c3F)ncnc2cc1C#C[C@@H]1[C@H]2CN(C)C[C@@H]12` [Compound 74, N-(4-((3-chloro-2-fluorophenyl)amino)-7-(((1R,5S,6s)-3-methyl-3-azabicyclo[3.1.0]hexan-6-yl)ethynyl)quinazolin-6-yl)but-2-ynamide], for which the IC50 against EGFR wt is 100 to 500 nM; on HER2 YVMA, over 500 nM; on HER2 S310F, 50 to 100 nM; against EGFR V3, at most 50 nM.

On to `C=CC(=O)Nc1cc2c(Nc3cc(Cl)ccc3F)ncnc2cc1C#C[C@@H]1[C@H]2CN(C)C[C@@H]12` [Compound 75, N-(4-((5-chloro-2-fluorophenyl)amino)-7-(((1R,5S,6s)-3-methyl-3-azabicyclo[3.1.0]hexan-6-yl)ethynyl)quinazolin-6-yl)acrylamide], for which the IC50 at EGFR wt is 100 to 500 nM; at HER2 YVMA it was over 500 nM; against HER2 S310F, 100 to 500 nM; against EGFR V3 it was at most 50 nM.

As for `C=CC(=O)Nc1cc2c(Nc3ccc(OCc4cccc(F)c4)c(Cl)c3)ncnc2cc1C#C[C@@H]1[C@H]2CN(C)C[C@@H]12` [Compound 76, N-(4-((3-chloro-4-((3-fluorobenzyl)oxy)-phenyl)amino)-7-(((1R,5S,6s)-3-methyl-3-azabicyclo[3.1.0]hexan-6-yl)ethynyl)quinazolin-6-yl)acrylamide], the IC50 on EGFR wt was over 500 nM; against HER2 YVMA, 100 to 500 nM; against HER2 S310F, 50 to 100 nM; on EGFR V3 it was 100 to 500 nM.

Take `C=CC(=O)Nc1cc2c(Nc3cccc(Cl)c3F)ncnc2cc1C#CC1CCN(C)C1` (stereo not drawn) [Compound 77, N-(4-((3-chloro-2-fluorophenyl)amino)-7-((1-methylpyrrolidin-3-yl)ethynyl)quinazolin-6-yl)acrylamide]: the IC50 was at most 50 nM at EGFR wt, 100 to 500 nM on HER2 YVMA, at most 50 nM at HER2 S310F and at most 50 nM against EGFR V3.

As for `C=CC(=O)Nc1cc2c(Nc3cccc(Cl)c3F)ncnc2cc1C#C[C@@H]1[C@H]2CN(C)C[C@@H]12` [Compound 78, N-(4-((3-chloro-2-fluorophenyl)amino)-7-(((1R,5S,6s)-3-methyl-3-azabicyclo[3.1.0]hexan-6-yl)ethynyl)quinazolin-6-yl)acrylamide], the IC50 at EGFR wt was at most 50 nM; on HER2 YVMA, 100 to 500 nM; against HER2 S310F, at most 50 nM; against EGFR V3, at most 50 nM.

In the case of `C=CC(=O)Nc1cc2c(Nc3ccc(OCc4ccccn4)c(Cl)c3)ncnc2cc1C#C[C@H]1[C@H]2CN(C)C[C@@H]12` [Compound 79, N-(4-((3-chloro-4-(pyridin-2-ylmethoxy)phenyl)amino)-7-(((1R,5S,6r)-3-methyl-3-azabicyclo[3.1.0]hexan-6-yl)ethynyl)quinazolin-6-yl)acrylamide], the concentration for half-maximal inhibition (IC50) on EGFR wt, at HER2 YVMA, on HER2 S310F and on EGFR V3 was over 500 nM each time.

Turning to `C=CC(=O)Nc1cc2c(Nc3ccc(Cl)c(Cl)c3F)ncnc2cc1C#CC1C2COCC12` (stereo not drawn) [Compound No. 80, N-(7-(3-oxabicyclo[3.1.0]hexan-6-ylethynyl)-4-((3,4-dichloro-2-fluorophenyl)amino)quinazolin-6-yl)acrylamide], the IC50 against EGFR wt was 50 to 100 nM; against HER2 YVMA, 100 to 500 nM; on HER2 S310F it was 50 to 100 nM; at EGFR V3, at most 50 nM.
